{"source": "ChEMBL document CHEMBL1150743", "about": "“Anti-inflammatory activity of benzoxazinoids from roots of Coix lachryma-jobi var. ma-yuen” (1988)", "data": [{"tested_on": "Mast cell", "assay": "Antiinflammatory activity in Wistar rat peritoneal mast cells assessed as inhibition of concanavalin A-induced histamine release treated 10 mins before concanavalin A challenge measured after 30 mins", "assay_type": "functional", "values": [{"smiles": "O=C(O)[C@H]1O[C@@H](Oc2cc3oc(-c4ccccc4)cc(=O)c3c(O)c2O)[C@H](O)[C@@H](O)[C@@H]1O", "note": "[BAICALIN]", "ID50": "3 ×10⁻⁶ M"}, {"smiles": "C[C@]12CCC(=O)C=C1CC[C@@H]1[C@@H]2[C@@H](O)C[C@@]2(C)[C@H]1CC[C@]2(O)C(=O)CO", "note": "[HYDROCORTISONE]", "ID50": "5 ×10⁻⁵ M"}, {"smiles": "COc1ccc2c(c1)OC(O)C(=O)N2", "note": "(racemic)", "ID50": "6 ×10⁻⁵ M"}, {"smiles": "COc1ccc2[nH]c(=O)oc2c1", "note": "[COIXOL]", "ID50": "1 ×10⁻³ M"}, {"smiles": "COc1ccc2c(c1)c(CC(=O)O)c(C)n2C(=O)c1ccc(Cl)cc1", "note": "[INDOMETHACIN]", "ID50": "8 ×10⁻⁴ M"}]}]}
